Measurements as given in ChEMBL document CHEMBL1126410, “Synthesis and activity in cognition-related tests of novel 2-benzoylamino-4-oxoquinazolines” (1992).
Activity calls are given as the source filed them. The calls are words filed in the database; no cut-off is given here.

Legend:
[1] = test system: Mus musculus; experiment: Evaluated for improvement of anoxic amnesia in mice after ip administration of 10 mg/kg dose(218 delay seconds); -19-248; type: functional; conditions: route intraperitoneal
[2] = test system: Mus musculus; experiment: Evaluated for improvement of anoxic amnesia in mice after ip administration of 100 mg/kg dose; type: functional; conditions: route intraperitoneal
[3] = test system: Mus musculus; experiment: Evaluated for improvement of anoxic amnesia in mice after ip administration of 25 mg/kg dose(341 delay seconds); 79-131; type: functional; conditions: route intraperitoneal
[4] = test system: Mus musculus; experiment: The compound was evaluated for hypoxic survival activity in mice after intraperitoneal administration at 100 mg/kg dose; 75-80; type: functional; conditions: ip
[5] = test system: Rattus norvegicus; experiment: Evaluated for improvement of anoxic amnesia in aged rat after ip administration of 10 mg/kg dose(529 delay seconds); type: functional; conditions: route intraperitoneal
[6] = test system: Rattus norvegicus; experiment: Evaluated for improvement of anoxic amnesia in aged rat after ip administration of 25 mg/kg (300 delay seconds); type: functional; conditions: route intraperitoneal
[7] = test system: Mus musculus; experiment: The compound was evaluated for hypoxic survival activity in mice after intraperitoneal administration at 100 mg/kg dose; 50-95; type: functional; conditions: ip
[8] = test system: Mus musculus; experiment: The compound was evaluated for hypoxic survival activity in mice after intraperitoneal administration at 0.125 mg/kg dose; 60-80; type: functional; conditions: ip
[9] = test system: Mus musculus; experiment: The compound was evaluated for hypoxic survival activity in mice after intraperitoneal administration at 10 mg/kg dose; 30-80; type: functional; conditions: ip
[10] = test system: Mus musculus; experiment: Evaluated for improvement of anoxic amnesia in mice after ip administration of 50 mg/kg dose; type: functional; conditions: route intraperitoneal
[11] = test system: Mus musculus; experiment: The compound was evaluated for hypoxic survival activity in mice after intraperitoneal administration at 50 mg/kg dose; 80-90; type: functional; conditions: ip
[12] = test system: Mus musculus; experiment: The compound was evaluated for hypoxic survival activity in mice after intraperitoneal administration at 100 mg/kg dose; type: functional; conditions: ip
[13] = test system: Mus musculus; experiment: The compound was evaluated for hypoxic survival activity in mice after intraperitoneal administration at 10 mg/kg dose; 50-75; type: functional; conditions: ip
[14] = test system: Mus musculus; experiment: The compound was evaluated for hypoxic survival activity in mice after intraperitoneal administration at 10-100 mg/kg dose; Inactive; type: functional, organism-based
[15] = test system: Mus musculus; experiment: The compound was evaluated for hypoxic survival activity in mice after intraperitoneal administration at 100 mg/kg dose; 55-55; type: functional; conditions: ip
[16] = test system: Mus musculus; experiment: The compound was evaluated for hypoxic survival activity in mice after intraperitoneal administration at 100 mg/kg dose; 45-65; type: functional; conditions: ip
[17] = test system: Mus musculus; experiment: The compound was evaluated for hypoxic survival activity in mice after intraperitoneal administration at 100 mg/kg dose; 80-85; type: functional; conditions: ip
[18] = test system: Mus musculus; experiment: The compound was evaluated for hypoxic survival activity in mice after intraperitoneal administration at 100 mg/kg dose; 65-80; type: functional; conditions: ip
[19] = test system: Mus musculus; experiment: The compound was evaluated for hypoxic survival activity in mice after intraperitoneal administration at 100 mg/kg dose; 50-90; type: functional; conditions: ip

Cn1c(NC(=O)c2ccccc2)nc2ccccc2c1=O
Improvement [1]: 94% | Improvement [2]: 78% | Improvement [3]: 105% | survival at 100 mg/kg [4]: 78% | Improvement [5]: 1369% | Improvement [6]: 733%

Cn1c(NC(=O)c2ccccc2)nc(=O)c2ccccc21
survival at 100 mg/kg [7]: 70%

CNC(=O)Oc1ccc2c(c1)[C@]1(C)CCN(C)[C@@H]1N2C [PHYSOSTIGMINE]
survival at 0.125 mg/kg [8]: 60%

O=C(Nc1nc(O)c2ccccc2n1)c1ccc(Cl)cc1
survival at 10 mg/kg [9]: 55%

Cc1ccc(C(=O)Nc2nc3ccccc3c(=O)n2C)cc1
Improvement [10]: 116% | survival at 50 mg/kg [11]: 85%

CC(C)n1c(NC(=O)c2ccccc2)nc2ccccc2c1=O
survival at 100 mg/kg [12]: 55%

COc1ccc(C(=O)Nc2nc(O)c3ccccc3n2)cc1
survival at 10 mg/kg [13]: 63%

Cc1ccc(C(=O)Nc2nc(O)c3ccccc3n2)cc1
survival at 10 mg/kg [13]: 63%

Cc1cccc(C(=O)Nc2nc(=O)c3ccccc3n2C)c1
Survival [14]: inactive

Cc1ccc2nc(NC(=O)c3ccccc3)nc(O)c2c1
survival at 100 mg/kg [15]: 55%

Cc1ccc(C(=O)Nc2nc(=O)c3ccccc3n2C)cc1
Improvement [10]: 224% | survival at 100 mg/kg [16]: 55%

Cc1cccc(C(=O)Nc2nc(O)c3ccccc3n2)c1
survival at 100 mg/kg [17]: 83%

O=C(Nc1nc(O)c2ccccc2n1)c1ccccc1
survival at 100 mg/kg [18]: 73% | Improvement [10]: 130%

COc1cc2nc(NC(=O)c3ccccc3)nc(O)c2cc1OC
survival at 100 mg/kg [19]: 70%
